Measurements reported in ChEMBL document CHEMBL1201862, “PubChem BioAssay data set” (2004).
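Five concentrations, 48 hours, 96-well plates. GI50: concentration for 50% inhibition of growth.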 Calls of active or inactive are those of the source. Rule as the data show it: active = GI50 up to about 1.1 µM and inactive = higher.

Tests used:
Test in all cases: NCI-60 cell line screen, 48 h
CCRF-CEM = system: CCRF-CEM
MOLT-4 = system: MOLT-4
NCI-H226 = system: NCI-H226
NCI/ADR-RES = system: NCI/ADR-RES
OVCAR-3 = system: OVCAR-3
OVCAR-4 = system: OVCAR-4
RXF 393 = system: RXF 393
SK-MEL-5 = system: SK-MEL-5
SK-OV-3 = system: SK-OV-3
SNB-19 = system: SNB-19
UACC-62 = system: UACC-62
XF498 = system: XF498
CAKI-1 = system: CAKI-1
TK-10 = system: TK-10

With `Cc1ccc2nc3c(C(=O)NCCN(C)C)cccc3cc2c1` the GI50 (CCRF-CEM) was 1.55 µM (inactive), the GI50 (MOLT-4) was 0.49 µM (active) and the GI50 (NCI-H226) was 1.45 µM (inactive). For the same compound, the GI50 (NCI/ADR-RES) was 1.13 µM (inactive), the GI50 (OVCAR-3) was 2 µM (inactive) and the GI50 (OVCAR-4) was 3.03 µM (inactive). For the same compound, the GI50 (RXF 393) was 2.02 µM (inactive), the GI50 (SK-MEL-5) was 1.76 µM (inactive) and the GI50 (SK-OV-3) was 2.39 µM (inactive). The GI50 (SNB-19) was 2.04 µM (inactive), the GI50 (UACC-62) was 2.35 µM (inactive) and the GI50 (XF498) was 1.8 µM (inactive).

`O=C1CCC(=O)C12CCc1cccc(O)c12` was tested, and the GI50 (CAKI-1) was > 100 µM (inactive), the GI50 (OVCAR-3) was > 100 µM (inactive) and the GI50 (OVCAR-4) was > 100 µM (inactive). For the same compound, the GI50 (RXF 393) was > 100 µM (inactive), the GI50 (SK-OV-3) was > 100 µM (inactive) and the GI50 (TK-10) was > 100 µM (inactive). The GI50 (UACC-62) was > 100 µM (inactive) and the GI50 (XF498) was > 100 µM (inactive).

In the case of `COC(=O)C(=O)C(C#N)c1cccc(Cl)c1` (stereo unspecified), the GI50 (CAKI-1) is reported as > 100 µM (inactive), the GI50 (CCRF-CEM) is reported as > 100 µM (inactive) and the GI50 (MOLT-4) is reported as > 100 µM (inactive). The GI50 (NCI-H226) was > 100 µM (inactive), the GI50 (OVCAR-3) was > 100 µM (inactive) and the GI50 (OVCAR-4) was > 100 µM (inactive). The GI50 (RXF 393) was > 100 µM (inactive), the GI50 (SK-MEL-5) was > 100 µM (inactive) and the GI50 (SK-OV-3) was > 100 µM (inactive). The GI50 (SNB-19) was > 100 µM (inactive), the GI50 (TK-10) was > 100 µM (inactive) and the GI50 (UACC-62) was > 100 µM (inactive). For the same compound, the GI50 (XF498) was > 100 µM (inactive).

In the case of `CCOc1ccc(O)cc1[P+](c1ccccc1)(c1ccccc1)c1ccccc1`, the GI50 (CAKI-1) is reported as 8.24 µM (inactive), the GI50 (CCRF-CEM) is reported as 1.56 µM (inactive) and the GI50 (NCI-H226) is reported as 1.64 µM (inactive). The GI50 (OVCAR-3) was 0.804 µM (active), the GI50 (OVCAR-4) was 6.22 µM (inactive) and the GI50 (RXF 393) was 3.59 µM (inactive). The GI50 (SK-MEL-5) was 1.66 µM (inactive), the GI50 (SK-OV-3) was 6.53 µM (inactive) and the GI50 (SNB-19) was 3.33 µM (inactive). For the same compound, the GI50 (TK-10) was 3.43 µM (inactive), the GI50 (UACC-62) was 3.79 µM (inactive) and the GI50 (XF498) was 1.16 µM (inactive).

`CC1=C(N(C)C)C(=O)c2nc3n(c2C1=O)CCC3OC(N)=O` (stereo unspecified) was tested, and the GI50 (CAKI-1) was 18.5 µM (inactive), the GI50 (CCRF-CEM) was 15.1 µM (inactive) and the GI50 (MOLT-4) was 13.1 µM (inactive). The GI50 (NCI-H226) was 19.4 µM (inactive), the GI50 (OVCAR-3) was 16.8 µM (inactive) and the GI50 (OVCAR-4) was 19.9 µM (inactive). The GI50 (SK-MEL-5) was 11.5 µM (inactive), the GI50 (SK-OV-3) was 15.2 µM (inactive) and the GI50 (SNB-19) was 17.5 µM (inactive). The GI50 (TK-10) was 18.2 µM (inactive), the GI50 (UACC-62) was 5.58 µM (inactive) and the GI50 (XF498) was 23.9 µM (inactive).

With `CC1OC1C(=O)C1(O)C(C)C(O)C23OC2(C(O)c2c(O)cccc2C3=O)C1O` (stereo unspecified) [CERVICARCIN] the GI50 (CAKI-1) was 0.0497 µM (active), the GI50 (CCRF-CEM) was 0.044 µM (active) and the GI50 (MOLT-4) was 0.0415 µM (active). The GI50 (NCI-H226) was 0.31 µM (active), the GI50 (NCI/ADR-RES) was 0.207 µM (active) and the GI50 (OVCAR-3) was 0.0638 µM (active). The GI50 (OVCAR-4) was 0.032 µM (active), the GI50 (RXF 393) was 0.191 µM (active) and the GI50 (SK-MEL-5) was 0.179 µM (active). The GI50 (SK-OV-3) was 0.111 µM (active), the GI50 (SNB-19) was 0.153 µM (active) and the GI50 (UACC-62) was 0.245 µM (active). The GI50 (XF498) was 0.253 µM (active).

In the case of `COc1ccc2c3c1O[C@H]1C[C@@H](O)C=C[C@@]31CCN(C)C2` [GALANTAMINE], the GI50 (CAKI-1) is reported as 114 µM (inactive), the GI50 (CCRF-CEM) is reported as > 150 µM (inactive) and the GI50 (MOLT-4) is reported as > 150 µM (inactive). For the same compound, the GI50 (NCI-H226) was > 150 µM (inactive), the GI50 (NCI/ADR-RES) was > 150 µM (inactive) and the GI50 (OVCAR-3) was > 150 µM (inactive). For the same compound, the GI50 (OVCAR-4) was > 150 µM (inactive), the GI50 (RXF 393) was > 150 µM (inactive) and the GI50 (SK-MEL-5) was > 150 µM (inactive). The GI50 (SK-OV-3) was > 150 µM (inactive), the GI50 (SNB-19) was > 150 µM (inactive) and the GI50 (UACC-62) was > 150 µM (inactive). For the same compound, the GI50 (XF498) was > 150 µM (inactive).

With `O=c1cc[nH]c(=O)[nH]1` [URACIL] the GI50 (CAKI-1) was 307 µM (inactive), the GI50 (CCRF-CEM) was 318 µM (inactive) and the GI50 (MOLT-4) was 550 µM (inactive). For the same compound, the GI50 (NCI-H226) was 329 µM (inactive), the GI50 (NCI/ADR-RES) was > 562 µM (inactive) and the GI50 (OVCAR-3) was 667 µM (inactive). For the same compound, the GI50 (OVCAR-4) was > 656 µM (inactive), the GI50 (RXF 393) was 316 µM (inactive) and the GI50 (SK-MEL-5) was 177 µM (inactive). The GI50 (SK-OV-3) was 813 µM (inactive), the GI50 (SNB-19) was 431 µM (inactive) and the GI50 (UACC-62) was 330 µM (inactive). The GI50 (XF498) was 4.23 µM (inactive).
